Results reported in patent publication US20240327506A1, “METHODS AND COMPOSITION FOR THE SELECTIVE ENHANCEMENT OF ADOPTIVE CELL THERAPY” (MaineHealth, priority 2023, published 2024).

What was measured:
Hut78 T-cells = assay: Transwell migration of Hut78 T-cells through collagen type-IV; type: cell-based, human
Method: FIGS. 4A-4H. […] Briefly, membranes from transwell migration chambers were coated with either native collagen type-IV or denatured collagen type-IV. T-cell variants were incubated with non-specific control peptide CP, or the RGDKGE (SEQ ID NO: 1)-containing collagen peptide (P2) and seed on the coated transwell membranes. T-cells were allowed to migrate in the presence or absence of SDF-1 added to the lower chamber for approximately 1.5 hours. Cell migration was quantified by counting the number of crystal violet stained cells that had migrated through to the underside of the coated membrane. FIG. 4A. Jurkat T-cell migration through denatured collagen type-IV in the presence of non-specific control peptide CP or RGDKGE (SEQ ID NO: 1)-containing collagen peptide P2 with SDF-1. FIG. 4B. Jurkat T-cell migration through native collagen type-IV in the presence of non-specific control peptide CP or RGDKGE (SEQ ID NO: 1)-containing collagen peptide P2 with SDF-1. FIG. 4C. Cem/C1 T-cell migration through denatured collagen type-IV in the presence of non-specific control peptide CP or RGDKGE (SEQ ID NO: 1)-containing collagen peptide P2 with SDF-1. FIG. 4D. Cem/C1 T-cell migration through native collagen type-IV in the presence of non-specific control peptide CP or RGDKGE (SEQ ID NO: 1)-containing collagen peptide P2. FIG. 4E. Hut78 T-cell migration through denatured collagen type-IV in the presence of non-specific control peptide CP or RGDKGE (SEQ ID NO: 1)-containing collagen peptide P2. FIG. 4F. Hut78 T-cell migration through native collagen type-IV in the presence of non-specific control peptide CP or RGDKGE (SEQ ID NO: 1)-containing collagen peptide P2. FIG. 4G Primary CD8+ T-cell migration through denatured collagen type-IV in the presence of non-specific control peptide CP or RGDKGE (SEQ ID NO: 1)-containing collagen peptide P2 with SDF-1. FIG. 4H. CD8+ T-cell migration through native collagen type-IV in the presence of non-specific control peptide CP or RGDKGE (SEQ ID NO: 1)-containing collagen peptide P2 with SDF-1. Data bars indicate the mean cell migration±S.E. *P<0.05.
Given our new observations, and the fact that many tumor types as well as immunosuppressive macrophages can secrete the small soluble RGDKGE (SEQ ID NO: 1) collagen peptide, we next sought to determine whether this soluble collagen peptide could impact T-cell migration through denatured collagen type-IV, a critical ECM component shown to be selectively enriched in tumor vessels. Briefly, membranes from transwell migration chambers were coated with either native collagen type-IV or denatured collagen type-IV. […] Cell migration was quantified following staining cells with crystal violet (6,8). […]

ID8-VEGF ovarian tumors = assay: T-cell levels in malignant ascites fluid of mice with ID8-VEGF ovarian tumors, flow cytometry; type: in vivo, C57BL/6 mice; conditions: compared to control antibody
Method: Data bars represent the mean percentage of CD8+ T-cells (+SE from 4 mice per condition) in the ascites fluid from each experimental group.
Mice (C57BL/6) were injected intraperitoneally with ID8-VEGF ovarian tumor cells. ID8-VEGF tumor cells were allowed to grow within the peritoneal cavity of mice for 4-weeks to allow formation of malignant ascites fluid and solid tumors. Beginning at 4 weeks, mice were injected subcutaneously with 100 μg per mouse 2× per week with non-specific control antibody (Ab Cont) or anti-HU177 antibody (Anti-HU177). At 12 weeks, mice were sacrificed and malignant ascites fluid was collected. The relative levels of CD4+ Treg-cells within the malignant ascites fluid was quantified by flow cytometry. Data bars represent the mean percentage of CD4+ Treg cells+SE from 4 mice per condition in the ascites fluid from each experimental group.
Given the surprising results that the Mab HU177 enhanced T-cell migration on denatured collagen type-IV, we next evaluated if administration of HU-177 antibody could increase the levels of CD8+ T-cells found in malignant ascites fluid. […] The relative levels of CD8+ T-cells within the malignant ascites fluid was quantified by flow cytometry, for 4 mice per experimental condition. […]

tumor = conditions: combination with anti-PDL-1 antibody; cited from earlier work
activated fibroblasts = conditions: cited from earlier work
αvβ3 = αvβ3 (Homo sapiens, UniProt P05106+P06756); conditions: cited from earlier work
Sequence of αvβ3 (P06756 31-889 limits assumed): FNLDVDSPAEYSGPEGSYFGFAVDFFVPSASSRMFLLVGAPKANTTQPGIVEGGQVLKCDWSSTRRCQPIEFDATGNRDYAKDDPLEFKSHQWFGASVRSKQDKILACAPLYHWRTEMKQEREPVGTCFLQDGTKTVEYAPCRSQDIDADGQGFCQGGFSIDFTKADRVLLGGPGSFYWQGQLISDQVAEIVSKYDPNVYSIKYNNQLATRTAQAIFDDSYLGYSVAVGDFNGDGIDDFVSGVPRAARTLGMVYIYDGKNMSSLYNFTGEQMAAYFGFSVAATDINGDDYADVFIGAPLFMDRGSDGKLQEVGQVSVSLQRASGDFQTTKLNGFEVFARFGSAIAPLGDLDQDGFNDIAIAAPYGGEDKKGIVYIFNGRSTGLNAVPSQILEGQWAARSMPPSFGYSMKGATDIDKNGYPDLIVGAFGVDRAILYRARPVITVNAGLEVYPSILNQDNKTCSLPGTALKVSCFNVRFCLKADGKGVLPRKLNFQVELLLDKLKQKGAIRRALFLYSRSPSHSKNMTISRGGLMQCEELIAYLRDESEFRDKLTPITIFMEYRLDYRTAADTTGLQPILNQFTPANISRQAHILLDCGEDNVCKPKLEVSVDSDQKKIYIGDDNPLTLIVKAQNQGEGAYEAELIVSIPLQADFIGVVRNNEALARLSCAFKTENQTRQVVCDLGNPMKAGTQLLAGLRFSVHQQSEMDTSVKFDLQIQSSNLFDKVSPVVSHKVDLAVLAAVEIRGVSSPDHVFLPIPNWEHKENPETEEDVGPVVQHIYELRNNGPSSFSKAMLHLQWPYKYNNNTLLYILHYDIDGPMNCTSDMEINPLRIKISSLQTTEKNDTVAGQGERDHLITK
Sequence of αvβ3 (P06756 891-1048 partner limits assumed): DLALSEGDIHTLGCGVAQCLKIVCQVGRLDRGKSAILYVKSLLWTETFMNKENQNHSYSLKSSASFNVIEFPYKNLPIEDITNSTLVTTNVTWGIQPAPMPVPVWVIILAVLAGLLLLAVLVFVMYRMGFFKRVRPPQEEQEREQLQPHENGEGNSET
Sequence of αvβ3 (P05106 27-788): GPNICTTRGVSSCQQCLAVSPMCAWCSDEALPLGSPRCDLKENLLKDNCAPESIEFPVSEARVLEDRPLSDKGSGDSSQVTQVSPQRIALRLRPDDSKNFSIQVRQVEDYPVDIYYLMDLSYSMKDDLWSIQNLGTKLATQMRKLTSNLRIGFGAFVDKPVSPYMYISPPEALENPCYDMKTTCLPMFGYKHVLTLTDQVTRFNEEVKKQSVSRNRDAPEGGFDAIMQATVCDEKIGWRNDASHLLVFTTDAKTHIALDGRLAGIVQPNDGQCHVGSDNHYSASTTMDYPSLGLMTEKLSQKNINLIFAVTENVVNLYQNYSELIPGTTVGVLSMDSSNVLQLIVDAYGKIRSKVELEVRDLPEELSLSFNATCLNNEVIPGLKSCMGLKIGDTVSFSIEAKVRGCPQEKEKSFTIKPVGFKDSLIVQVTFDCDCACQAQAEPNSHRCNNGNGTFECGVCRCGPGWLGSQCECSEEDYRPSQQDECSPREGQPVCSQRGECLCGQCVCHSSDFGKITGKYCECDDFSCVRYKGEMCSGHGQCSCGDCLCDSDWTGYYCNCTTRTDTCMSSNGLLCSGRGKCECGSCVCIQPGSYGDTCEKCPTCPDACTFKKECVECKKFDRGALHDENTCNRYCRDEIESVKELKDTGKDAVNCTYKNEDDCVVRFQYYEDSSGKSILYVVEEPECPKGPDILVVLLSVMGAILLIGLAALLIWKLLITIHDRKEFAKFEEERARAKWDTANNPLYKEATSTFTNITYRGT

CQGPGGAAGGC [CP, reference compound]
Hut78 T-cell migration (Hut78 T-cells; native collagen type-IV, peptide, absence of SDF-1): nor the non-specific control peptide had any significant effect

Mab HU177: antibody specifically directed to denatured forms of collagen, cryptic CPGFPGFC (SEQ ID NO: 16) epitope
Hut78 T-cell migration (Hut78 T-cells; denatured collagen type-IV, fab fragments, compared to control antibody): significantly enhanced
mean % Treg cells in the ascites fluid (ID8-VEGF ovarian tumors; 100 μg per mouse subcutaneously twice a week from week 4, ascites at 12 weeks): significant decrease
mean percentage of CD8+ T-cells in the ascites fluid (ID8-VEGF ovarian tumors; 100 μg/mouse subcutaneously twice a week from week 4, ascites at 12 weeks): significant increase
anti-tumor efficacy of an immune checkpoint inhibitor (anti-PDL-1) in vivo (tumor): enhance the therapeutic activity
activated fibroblast migration and accumulation within tumors in vivo (activated fibroblasts): inhibits

KGDRGDAPG (CKGDRGDAPGC; Synthetic: Synthetic collagen RGD containing peptide P-1) [synthetic collagen RGD peptide, Colla1 742-750]
binding to αvβ3 (αvβ3): bound
